According to patent US6852744B2, “Pyrrolidine derivatives and their use as chymase inhibitor” (Dainippon Pharmaceutical Co., Ltd., priority 2000, dated 2005):
Numbering of substitutions follows the chain as printed.

Legend:
[1] = Toxicity study, 2 weeks oral; type: in vivo; settings: five-week-old male ddy mice; orally once a day for 2 weeks; 30 and 300 mg/kg/day
Procedure: Five-week-old male ddy mice were administered orally once a day for 2 weeks with the compound I-A-1 at dose levels of 30 and 300 mg/kg/day.

monkey chymase = target: T1, monkey chymase (Macaca fascicularis, UniProt P56435); test: Monkey chymase inhibitory activity (in vitro, angiotensin I substrate); type: biochemical; settings: chymase purified from monkey cheek pouch and stomach; substrate angiotensin I; 37° C.; read-out: Monkey Chymase Inhibition (IC50:nM)
T1 construct: chymase was extracted from homogenized monkey cheek pouch and stomach; from tissue; host or cells: monkey cheek pouch and stomach
T1 sequence (P56435 22-247): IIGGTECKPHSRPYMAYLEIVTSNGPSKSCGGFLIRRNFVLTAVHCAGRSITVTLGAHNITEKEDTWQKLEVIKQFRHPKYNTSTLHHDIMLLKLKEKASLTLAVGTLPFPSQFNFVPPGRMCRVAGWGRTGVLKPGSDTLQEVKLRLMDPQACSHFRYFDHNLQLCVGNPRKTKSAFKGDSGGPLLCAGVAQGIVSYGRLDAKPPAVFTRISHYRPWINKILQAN
Procedure: (§1) The inhibitory activities of the compounds on monkey chymase and human chymase were tested in vitro. The test compounds are as shown by Compound Nos. in Tables 13 and 14.
Preparation of Monkey Chymase
Chymase was purified from monkey cheek pouch and stomach in the following manner.
Briefly, chymase was extracted from homogenized monkey cheek pouch and stomach with 0.01 mol/1000 ml sodium phosphate buffer, pH 7.4, containing 2 mol/1000 ml KCl and 0.1% Nonidet P-40 (Amresco Inc.). The solution containing chymase was applied to a heparin actigel column, and the chymase-rich fractions were collected.
(§2) Measurement of Chymase Inhibitory Activity (In Vitro Assay)
(§3) Briefly, the purified monkey or human chymase was diluted to an appropriate concentration with 0.01 mol/1000 ml sodium phosphate buffer, pH 7.4, containing 2 mol/1000 ml KCl and 0.1% Nonidet P-40 and used as enzyme solution. Angiotensin I (Peptide Institute Inc.) was diluted with water to 5 mg/ml and used as substrate solution. Test compounds were serially diluted with 10% DMSO. […] After pre-incubation of the mixture at 37° C., 20 μl of the substrate solution was added to the enzyme-test compound mixture and the new mixture was incubated at 37° C. Fifty μl of 30% trichloroacetic acid solution was finally added to stop the enzymatic reaction.
(§4) The amount of L-His-L-Leu was measured as angiotensin II produced by the enzymatic reaction. Briefly, 10 μl of the reaction mixture and 10 μl of 1% orthophthalaldehyde solution dissolved in methanol were mixed with 100 μl of 2 mol/1000 ml NaOH and kept at room temperature. The reaction was then stopped by adding 10 μl of 6 mol/1000 ml HCl.

human chymase = target: T2, human chymase (Homo sapiens, UniProt P23946); test: Human chymase inhibitory activity (in vitro, angiotensin I substrate); type: biochemical; settings: recombinant human chymase (COS7 cells); substrate angiotensin I; 37° C.; read-out: Human Chymase Inhibition (IC50:nM)
T2 construct: made in house; host or cells: COS7 cells (transient transfection)
T2 sequence (P23946 22-247): T1 sequence (P56435 22-247) with S29F, V44A, K63E, Y159D, L201S, K221Q
Procedure: as §1
Preparation of Human Chymase
Human chymase was produced in mammalian cells using a recombinant DNA technique.
Construction of a human prochymase expression plasmid was performed in the following manner. Briefly, single stranded cDNA was synthesized from human heart mRNA (Clontech Laboratories, Inc.). Polymerase chain reaction amplification was carried out using the cDNA as a template and appropriate pairs of primers. The primer sequences were determined based on the human preprochymase. The amplified product was cloned into the plasmid pUC18, and then recloned into the plasmid pBluescript II KS(+) (Stratagene). Finally, the DNA fragment carrying the entire protein-coding sequences of the human preprochymase was inserted to a transient expression vector by the usual method to yield the human prochymase expression plasmid.
Transfection of COS7 cells with the human prochymase expression plasmid was carried out using the FuGene™ 6 transfection reagent (Boehringer Mannheim). About 7 hours after exposure to DNA, the culture medium was changed to a serum-free one. The culture supernatant was collected after 2 days culture.
Human prochymase was purified from the culture supernatant using a heparin actigel column as described above in the preparation of monkey chymase.
In order to produce active chymase, the human prochymase was incubated with dipeptidylpeptidase I (Sigma). The resultant active human chymase was purified using a heparin actigel column as described above. The active human chymase was eluted with 0.01 mol/1000 ml sodium phosphate buffer pH 7.4 containing 2 mol/1000 ml NaCl.
as §2
as §3, with “The chymase inhibitory activities of compounds I-A of this invention were measured according to the following method. Briefly,” for “Briefly,”
as §4, with “HCl. Finally, the fluorescence induced by the reaction was measured using in a photometer with an excitation wavelength of 355 nm and an emission wavelength of 460 nm. Chymase inhibitory activities of test compounds were expressed as 50% inhibitory concentration (IC50).” for “HCl.”

in vivo = settings: male, ddy, mouse, po
Procedure: Plasma levels of test compounds were measured in the following manner.
Briefly, test compounds were dissolved in DMSO to 100 mg/ml, and suspended with 0.5% tragacanth solution 1 mg/ml. Male ddy mice, weighing about 30 g, were orally administered the test compound solution. After one hour, blood was collected from the heart under anesthesia with Nembutal (Dainippon Pharmaceutical Co., Ltd.) and centrifuged to obtain plasma. The collected plasma (125 μl) was mixed with 10% DMSO (120 μl) and ethyl acetate (720 μl). After centrifugation, the ethyl acetate layer was collected and evaporated. The residue was dissolved and diluted serially as test samples with 10% DMSO. Chymase inhibitory activities of test samples were measured in the same manner as described in Experiment 1. In this chymase inhibitory assay of test samples, 0.1 mol/1000 ml sodium phosphate buffer, pH 7.4 contained 5 mmol/1000 ml ethylenediaminetetraacetic acid (EDTA) disodium salt, 0.77 mmol/1000 ml diisopropyl fluorophosphate (DFP) and 8 mmol/1000 ml dipyridyl. Plasma concentrations of test compounds were calculated from calibration curves.
The calibration curve was obtained in the following manner. Test compounds (0.06-60 ng) were added into the control plasma. The control plasma was treated in the same manner as for test samples. Finally, chymase inhibitory activities of the 10% DMSO-dissolved residues were measured and plotted against the amount of test compounds.

[2] = test system: chymase-induced dye leakage; test: Skin permeability test: inhibition of vascular permeability (Evans Blue dye leakage); type: in vivo; settings: male Hartley guinea pigs, 100 mg/kg orally 1 hour before intradermal injection of human chymase
Procedure: Skin permeability test was carried out according to the following method. Briefly, male Hartley guinea pigs (350-460 g, Shizuoka Laboratory Animal Center, Japan) were anesthetized by intraperitoneal injection of Nembutal™ (30 mg/kg; Dainippon Pharmaceutical Co., Ltd., Japan). After shaving the guinea pigs dorsa, 50 μl of purified human chymase (Elastin Products Inc., USA) diluted with phosphate buffered saline (PBS) to a concentration of 1.8 units /55 μg protein/ml (1 unit of chymase represents the amount of chymase required to hydrolyze 1.0 μmole of N-benzoyl-L-tyrosine-ethyl ester (BTEE) per minute at 25° C.; pH 7.8) were injected intradermally into three dorsal sites of each animal. […] The amounts of dye leakage into the dorsal skins were measured according to the following method.
Briefly, the area around each injection site (16 mm diameter) was punched out from the inside of the skin, and the leaked dye was extracted by incubation of the punched skin in N,N-dimethylformamide (DMF, 3 ml) at 55° C. overnight. The absorbance of the dye extract was then measured using a spectrophotometer at a wavelength of 620 nm. […] The amount of chymase-induced dye leakage (ACDL) and the amount of solvent-induced dye leakage (ASDL) in each animal were calculated as the average of dye leakage from the three treated dorsal sites in each case. […]

SMILES | treatment-related finding (body weight, diet consumption, heart, liver, kidney weight, necropsy finding, hematology, blood chemistry) [1] | IC50 (monkey chymase) | IC50 (human chymase) | concentration at 1 h (in vivo) | Dye leakage inhibition rate (%) [2]
Cc1noc(C)c1C(=O)N[C@H](C(=O)N1CCC[C@H]1C(=O)N[C@@H](Cc1csc2ccccc12)C(=O)C(F)(F)F)C(C)C [I-A-1, N-[(1S)-2-((2S)-2-{N-[(1S)-1-(benzo[b]thiophen-3-yl-methyl)-3,3,3-trifluoro-2-oxopropyl]carbamoyl}pyrrolidinyl)-1-(methylethyl)-2-oxoethyl](3,5-dimethylisoxazol-4-yl)carboxamide] | no treatment-related finding | 3.8 nM | 55 nM | 480 ng/mL | 34%
Cc1nnsc1C(=O)N[C@H](C(=O)N1CCC[C@H]1C(=O)N[C@@H](Cc1csc2ccccc12)C(=O)C(F)(F)F)C(C)C [I-A-20, N-[(1S)-2-((2S)-2-{N-[(1S)-1-(benzo[b]thiophen-3-ylmethyl)-3,3,3-trifluoro-2-oxopropyl]carbamoyl}pyrrolidinyl)-1-(methylethyl)-2-oxoethyl](4-methyl(1,2,3-thiadiazol-5-yl))carboxamide] | – | 5.1 nM | 36 nM | 570 ng/mL | 59%
